Test results reported in patent US11446287B2, “Compounds and methods for EP300 or CBP modulation and indications therefor” (Opna Immuno-Oncology SA, priority 2019, dated 2022).

target: T1, Recombinant human EP300 containing the bromodomain (EP300-BD (1040-1161)) (Homo sapiens, UniProt Q09472); experiment: EP300 Alphascreen binding assay
T1 construct: Recombinant human EP300 bromodomain (EP300-BD (1040-1161)); made in house; host or cells: E. coli BL21-CodonPlus (DE3), modified pET vector
T1 sequence (Q09472 1040-1161): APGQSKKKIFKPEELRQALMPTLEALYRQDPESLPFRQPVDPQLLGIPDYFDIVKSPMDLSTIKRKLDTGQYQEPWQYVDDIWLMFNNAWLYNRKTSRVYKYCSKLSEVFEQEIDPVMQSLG
In short: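 Displacement of a biotinylated acetyl-K56 histone H3 peptide from the N-His bromodomain construct (1040-1161) measured by AlphaScreen proximity, beads at 7.5 μg/ml final, read 60 min after addition. Protein, peptide and compound first incubated 1 h at room temperature, pH 7.5 HEPES buffer; IC50 by four-parameter logistic fit.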

Compound	IC50
Cc1noc(C)c1-c1cnc2c(c1)c(-c1ccc(C(=O)O)cc1OC(F)(F)F)cn2-c1cnn(C(F)F)c1C [P-0289, 4-(1-(1-(difluoromethyl)-5-methyl-1H-pyrazol-4-yl)-5-(3,5-dimethylisoxazol-4-yl)-1H-pyrrolo[2,3-b]pyridin-3-yl)-3-(trifluoromethoxy)benzoic acid]	0.0001 to 1 µM
CCOc1cc(C(=O)O)cc(OCC)c1-n1cc(-c2cnn(CC3CC3)c2)c2ncc(-c3c(C)noc3C)cc21 [P-0264, 4-(3-(1-(cyclopropylmethyl)-1H-pyrazol-4-yl)-6-(3,5-dimethylisoxazol-4-yl)-1H-pyrrolo[3,2-b]pyridin-1-yl)-3,5-diethoxybenzoic acid]	0.0001 to 1 µM
Cc1noc(C)c1-c1cnc2c(c1)c(-c1ccc(C(=O)O)cc1OC(F)(F)F)cn2[C@H]1CCOC1 [P-0285, (S)-4-(5-(3,5-dimethylisoxazol-4-yl)-1-(tetrahydrofuran-3-yl)-1H-pyrrolo[2,3-b]pyridin-3-yl)-3-(trifluoromethoxy)benzoic acid]	0.0001 to 1 µM
Cc1noc(C)c1-c1cnc2c(c1)c(-c1ccc(C(=O)O)cc1OC(F)(F)F)cn2-c1ccncc1Cl [P-0253, 4-(1-(3-chloropyridin-4-yl)-5-(3,5-dimethylisoxazol-4-yl)-1H-pyrrolo[2,3-b]pyridin-3-yl)-3-(trifluoromethoxy)benzoic acid]	0.0001 to 1 µM
Cc1noc(C)c1-c1cnc2c(c1)c(-c1ccc(C(=O)O)cc1OC(F)(F)F)cn2C1CCN(S(C)(=O)=O)CC1 [P-0292, 4-(5-(3,5-dimethylisoxazol-4-yl)-1-(1-(methylsulfonyl)piperidin-4-yl)-1H-pyrrolo[2,3-b]pyridin-3-yl)-3-(trifluoromethoxy)benzoic acid]	0.0001 to 1 µM
Cc1noc(C)c1-c1cnc2c(c1)c(-c1ccc(C(=O)O)cc1OC1CCC1)cn2-c1ccccc1 [P-0276, 3-cyclobutoxy-4-(5-(3,5-dimethylisoxazol-4-yl)-1-phenyl-1H-pyrrolo[2,3-b]pyridin-3-yl)benzoic acid]	0.0001 to 1 µM
Cc1noc(C)c1-c1cnc2c(-c3cc(C(=O)O)ccc3Cl)c(C(F)(F)F)n([C@@H](C)c3ccccn3)c2c1 [P-0257, (S)-4-chloro-3-(6-(3,5-dimethylisoxazol-4-yl)-1-(1-(pyridin-2-yl)ethyl)-2-(trifluoromethyl)-1H-pyrrolo[3,2-b]pyridin-3-yl)benzoic acid]	0.0001 to 1 µM
CCOc1cc(C(=O)O)cc(OCC)c1-n1cc(CC2CCC2)c2ncc(-n3c(C)nnc3C)cc21 [P-0270, 4-(3-(cyclobutylmethyl)-6-(3,5-dimethyl-4H-1,2,4-triazol-4-yl)-1H-pyrrolo[3,2-b]pyridin-1-yl)-3,5-diethoxybenzoic acid]	1 to 8 µM
Cc1cc(C#N)ccc1-n1cc(-c2ccc(C(=O)O)cc2OC(F)(F)F)c2cc(-c3c(C)noc3C)cnc21 [P-0310, 4-(1-(4-cyano-2-methylphenyl)-5-(3,5-dimethylisoxazol-4-yl)-1H-pyrrolo[2,3-b]pyridin-3-yl)-3-(trifluoromethoxy)benzoic acid]	0.0001 to 1 µM
CCOc1cc(C(=O)O)cc(OCC)c1-n1cc(-c2cnn(C3CC3)c2)c2ncc(-c3c(C)noc3C)cc21 [P-0265, 4-(3-(1-cyclopropyl-1H-pyrazol-4-yl)-6-(3,5-dimethylisoxazol-4-yl)-1H-pyrrolo[3,2-b]pyridin-1-yl)-3,5-diethoxybenzoic acid]	0.0001 to 1 µM
CCCn1nc(C(=O)O)c(N)c1-c1cn(-c2ccc(F)cc2F)c2ncc(-c3c(C)noc3C)cc12 [P-0303, 4-amino-5-(1-(2,4-difluorophenyl)-5-(3,5-dimethylisoxazol-4-yl)-1H-pyrrolo[2,3-b]pyridin-3-yl)-1-propyl-1H-pyrazole-3-carboxylic acid]	0.0001 to 1 µM
Cc1nn(C(F)F)cc1-n1cc(-c2ccc(C(=O)O)cc2OC(F)(F)F)c2cc(-c3c(C)noc3C)cnc21 [P-0288, 4-(1-(1-(difluoromethyl)-3-methyl-1H-pyrazol-4-yl)-5-(3,5-dimethylisoxazol-4-yl)-1H-pyrrolo[2,3-b]pyridin-3-yl)-3-(trifluoromethoxy)benzoic acid]	0.0001 to 1 µM
Cc1noc(C)c1-c1cnc2c(c1)c(-c1ccc(C(=O)O)cc1OC(F)(F)F)cn2-c1c(F)cccc1C#N [P-0254, 4-(1-(2-cyano-6-fluorophenyl)-5-(3,5-dimethylisoxazol-4-yl)-1H-pyrrolo[2,3-b]pyridin-3-yl)-3-(trifluoromethoxy)benzoic acid]	0.0001 to 1 µM
Cc1noc(C)c1-c1cnc2c(c1)c(-c1ccc(C(=O)O)cc1OC(F)F)cn2-c1ccccc1 [P-0273, 3-(difluoromethoxy)-4-(5-(3,5-dimethylisoxazol-4-yl)-1-phenyl-1H-pyrrolo[2,3-b]pyridin-3-yl)benzoic acid]	0.0001 to 1 µM
Cc1noc(C)c1-c1cnc2c(c1)c(-c1ccc(C(=O)O)cc1OC(F)(F)F)cn2-c1cnn(CC(C)(C)O)c1 [P-0294, 4-(5-(3,5-dimethylisoxazol-4-yl)-1-(1-(2-hydroxy-2-methylpropyl)-1H-pyrazol-4-yl)-1H-pyrrolo[2,3-b]pyridin-3-yl)-3-(trifluoromethoxy)benzoic acid]	0.0001 to 1 µM
CCOc1cc(C(=O)O)cc(OCC)c1-n1cc(-c2cnn(CCC#N)c2)c2ncc(-c3c(C)noc3C)cc21 [P-0266, 4-(3-(1-(2-cyanoethyl)-1H-pyrazol-4-yl)-6-(3,5-dimethylisoxazol-4-yl)-1H-pyrrolo[3,2-b]pyridin-1-yl)-3,5-diethoxybenzoic acid]	0.0001 to 1 µM
Cc1noc(C)c1-c1cnc2c(c1)c(-c1ccc(-c3nn[nH]n3)cc1)cn2C(c1ccccn1)C1CCCC1 (centres unmarked) [P-0024, 4-(3-(4-(2H-tetrazol-5-yl)phenyl)-1-(cyclopentyl(pyridin-2-yl)methyl)-1H-pyrrolo[2,3-b]pyridin-5-yl)-3,5-dimethylisoxazole]	1 to 8 µM
Cc1noc(C)c1-c1cnc2c(c1)c(-c1ccc(C(=O)O)cc1OC(F)(F)F)cn2-c1cnccc1O [P-0252, 4-(5-(3,5-dimethylisoxazol-4-yl)-1-(4-hydroxypyridin-3-yl)-1H-pyrrolo[2,3-b]pyridin-3-yl)-3-(trifluoromethoxy)benzoic acid]	0.0001 to 1 µM
CCOc1cc(C(=O)O)cc(OCC)c1-n1cc(C2CCC(F)(F)CC2)c2ncc(-c3c(C)noc3C)cc21 [P-0271, 4-(3-(4,4-difluorocyclohexyl)-6-(3,5-dimethylisoxazol-4-yl)-1H-pyrrolo[3,2-b]pyridin-1-yl)-3,5-diethoxybenzoic acid]	0.0001 to 1 µM
Cc1noc(C)c1-c1cnc2c(-c3ccc(F)cc3F)cn(-c3c(OC(C)C)cc(C(=O)O)cc3OC(C)C)c2c1 [P-0269, 4-(3-(2,4-difluorophenyl)-6-(3,5-dimethylisoxazol-4-yl)-1H-pyrrolo[3,2-b]pyridin-1-yl)-3,5-diisopropoxybenzoic acid]	0.0001 to 1 µM
Cc1noc(C)c1-c1cnc2c(-c3ccccc3)cn(-c3cc(C(=O)O)ccc3OC(F)(F)F)c2c1 [P-0274, 3-(6-(3,5-dimethylisoxazol-4-yl)-3-phenyl-1H-pyrrolo[3,2-b]pyridin-1-yl)-4-(trifluoromethoxy)benzoic acid]	0.0001 to 1 µM
Cc1noc(C)c1-c1cnc2c(c1)c(-c1ccc(C(=O)O)cc1OC(F)(F)F)cn2-c1ccc(S(C)(=O)=O)cc1 [P-0282, 4-(5-(3,5-dimethylisoxazol-4-yl)-1-(4-(methylsulfonyl)phenyl)-1H-pyrrolo[2,3-b]pyridin-3-yl)-3-(trifluoromethoxy)benzoic acid]	0.0001 to 1 µM
CCOC(=O)c1cc(-c2cn(-c3ccc(F)cc3F)c3ncc(-c4c(C)noc4C)cc23)c(OCC)cc1O [P-0248, ethyl 5-(1-(2,4-difluorophenyl)-5-(3,5-dimethylisoxazol-4-yl)-1H-pyrrolo[2,3-b]pyridin-3-yl)-4-ethoxy-2-hydroxybenzoate]	8 to 1000 µM
Cc1noc(C)c1-c1cnc2c(c1)c(-c1ccc(C(=O)O)cc1OC(F)(F)F)cn2-c1ccsc1 [P-0315, 4-(5-(3,5-dimethylisoxazol-4-yl)-1-(thiophen-3-yl)-1H-pyrrolo[2,3-b]pyridin-3-yl)-3-(trifluoromethoxy)benzoic acid]	0.0001 to 1 µM
Cc1noc(C)c1-c1cnc2c(-c3cccc(C(=O)O)c3Cl)c(C(F)(F)F)n([C@@H](C)c3ccccn3)c2c1 [P-0247, (S)-2-chloro-3-(6-(3,5-dimethylisoxazol-4-yl)-1-(1-(pyridin-2-yl)ethyl)-2-(trifluoromethyl)-1H-pyrrolo[3,2-b]pyridin-3-yl)benzoic acid]	0.0001 to 1 µM
Cc1noc(C)c1-c1cnc2c(c1)c(-c1ccc(C(=O)O)nc1)cn2C(c1ccccn1)C1CCCC1 (centres unmarked) [P-0026, 5-(1-(cyclopentyl(pyridin-2-yl)methyl)-5-(3,5-dimethylisoxazol-4-yl)-1H-pyrrolo[2,3-b]pyridin-3-yl)picolinic acid]	0.0001 to 1 µM
Cc1noc(C)c1-c1cnc2c(c1)c(-c1cnn(CC(=O)O)c1)cn2-c1ncccc1C#CC1CC1 [P-0272, 2-(4-(1-(3-(cyclopropylethynyl)pyridin-2-yl)-5-(3,5-dimethylisoxazol-4-yl)-1H-pyrrolo[2,3-b]pyridin-3-yl)-1H-pyrazol-1-yl)acetic acid]	0.0001 to 1 µM
CC(=O)N1CCC(n2cc(-c3ccc(C(=O)O)cc3OC(F)(F)F)c3cc(-c4c(C)noc4C)cnc32)CC1 [P-0291, 4-(1-(1-acetylpiperidin-4-yl)-5-(3,5-dimethylisoxazol-4-yl)-1H-pyrrolo[2,3-b]pyridin-3-yl)-3-(trifluoromethoxy)benzoic acid]	0.0001 to 1 µM
Cc1noc(C)c1-c1cnc2c(c1)c(-c1ccc(C(=O)O)cc1OC(F)(F)F)cn2-c1ccc(C#N)cc1 [P-0313, 4-(1-(4-cyanophenyl)-5-(3,5-dimethylisoxazol-4-yl)-1H-pyrrolo[2,3-b]pyridin-3-yl)-3-(trifluoromethoxy)benzoic acid]	0.0001 to 1 µM
